The NIST ThermoML archive (doi:10.1016/j.fluid.2006.08.004)
Numbers after ± are expanded uncertainties.

Legend:
[1] = refractive index (Na D-line) (dimensionless); conditions: 298.15 K; 101.33 kPa; Liquid; Standard Abbe refractometry
[2] = Liquid; for mass density: 298.15 K, 101.33 kPa; for Normal boiling temperature: Ebulliometric method (Recirculating still)

refractive index [1] | mass density [2] [kg/m3] | Normal boiling temperature [2] [°C] | Structure (SMILES)
1.38887 ± 0.00068 | 687.72 ± 0.65 | 99.18 ± 0.01 | CC(C)CC(C)(C)C [2,2,4-trimethylpentane]
1.36512 ± 0.0007 | 718.37 ± 1.2 | 68.38 ± 0.1 | CC(C)OC(C)C [diisopropyl ether]
1.35926 ± 0.00068 | 785.09 ± 0.25 | 78.29 ± 0.01 | CCO [ethanol]
